Square brackets hold non-standard residues; d marks the D form. Peptide text beside a SMILES is read from it. βAla = NCCC(=O)O
Test system: mice subjected to bilateral renal pedicle clamping
Test: Ischemic AKI by bilateral renal pedicle clamping (BUN, creatinine, survival)
Type: in vivo, C57BL/6J mice
Settings: for Renal function (serum BUN): days 1-7 post-ischemia, single i.v. dose 100 μg/g within 3 h after 28 min ischemia, versus control peptide; for Animals surviving severe ischemic AKI: single dose 0-3 hours after releasing clamps; for Animal deaths on day 1 post-AKI / Survival / Total deaths / Animal deaths on day 2 post-AKI / Animal deaths on day 3 post-AKI: n = 8; for Animal deaths on day 1 post-AKI / Animal deaths on day 2 post-AKI / Animal deaths on day 3 post-AKI: 28 min renal ischemia; for Survival: 7 d; for Total deaths: recorded for 7 d
From the text: All animals were maintained under the guidance and policies of the Boston University Animal Core facility using National Institutes of Health (NIH) and Institutional Animal Care and Use Committee guidelines. Male and female C57BL/6J mice were purchased from Jackson Laboratory (Bar Harbor, ME), and they were housed and bred at the Boston University Animal Core facility under license number AN-15024. […] Animas were handled in a manner consistent with the NIH guide for their care and use under Institutional Animal Care and Use Committee approval.
Mice were subjected to bilateral renal pedicle clamping after being anesthetized with 2,2,2-tribromoethanol. […] 13,28,29 Slight variation in the clamp time was required to achieve similar degrees of renal dysfunction in the relatively large number of animals studied. The clamp was then removed, and reperfusion was confirmed by visual inspection of the kidneys. Sham ischemia was performed by encircling each renal pedicle with a nonocclusive ligature.
For in vitro testing in primary human PTECs, peptides ([…]) were tested that replicate the Bax domain responsible for binding NPM,34 or two peptides designed to interfere with NPM function were compared with a random nonspecific sequence of the same length (control). Peptides intended to interfere with NPM function overlap key phosphorylation sites located at the NPM amino terminus (peptide 2) or carboxy terminus (peptide 3) detected by mass spectrometry. To improve cell uptake, all peptides contained a cell-penetrating sequence13. For in vivo experiments, a renal-targeting sequence (NLS) was added to enhance renal peptide uptake.35 Peptides were commercially synthesized (Biomatik, Wilmington, DE) J Am Soc Nephrol 30: ccc-ccc, 2018 Nucleophosmin in AKI 3www.jasn.org BASIC RESEARCHas follows: NPM-Bax blocking peptide: Ac-KKKRKV-(bA)-[…]-COOH (SEQ ID NO: 8); peptide 2: AC-PKKKRKV-(bA)-[…]-COOH (SEQ ID NO: 9); and peptide 3: AC-PKKKRKV-(bA)-ESFKK-QEKTPKTPKGPSSVED-IKAK-COOH (SEQ ID NO: 10). […] A total of 42 control and 56 experimental animals were studied.
Transient exposure to metabolic inhibitors replicates ischemia in vivo by activating Bax and causing cell death.13,29,36-38 Cell viability was assayed using a modified colorimetric technique (MTTassay).37 The number of surviving cells is expressed as a percentage of viable control cells detected at baseline. Serum BUN and creatinine levels were measured in tail vein blood samples for 7 days after ischemia using QuantiChrom BUN or creatinine assay kits (BioAssay Systems, Hayward, CA) according to the manufacturer's instructions.

[1] = 28 min bilateral pedicle clamping

## CC[C@H](C)[C@H](NC(=O)[C@@H](NC(=O)[C@H](CC(C)C)NC(=O)[C@H](CO)NC(=O)[C@H](C)NC(=O)[C@@H](NC(=O)[C@H](CC(C)C)NC(=O)[C@@H](NC(=O)CNC(=O)[C@H](C)NC(=O)[C@@H](NC(=O)[C@H](Cc1ccccc1)NC(=O)[C@@H](NC(=O)[C@@H](NC(=O)[C@@H](NC(=O)[C@@H](NC(=O)CCNC(=O)[C@@H](NC(=O)[C@H](CCCCN)NC(=O)[C@H](CCCNC(=N)N)NC(=O)[C@H](CCCCN)NC(=O)[C@H](CCCCN)NC(=O)[C@H](CCCCN)NC(C)=O)C(C)C)[C@@H](C)O)C(C)C)[C@@H](C)O)[C@@H](C)CC)C(C)C)C(C)C)[C@@H](C)O)[C@@H](C)O)C(=O)N[C@@H](Cc1c[nH]c2ccccc12)C(=O)N[C@@H](CCCCN)C(=O)N[C@@H](CCCCN)C(=O)N[C@@H](CCSC)C(=O)NCC(=O)O [Peptide #1] (Ac-KKKRKV[βAla]TVTIFVAGVLTASLTIWKKMG-OH)
22 min bilateral renal ischemia
  Animals surviving: 98%
[1]
  Animal survival: all survived
  Mean peak BUN: 100 m/dl
Day 1, peptide administered 3 hours after ischemia, versus control
  Serum creatinine: significantly reduced
Day 1 post-ischemia, single dose after 28 min ischemia
  Reduction of serum creatinine: ~50%
Days 1-6, IV within 3 hr after 22 min bilateral renal ischemia, versus random peptide
  Improvement of BUN: 15-35%
Listed as Blocking peptide
  Renal function (serum BUN): significantly improved renal function
Listed as renal targeted peptide designed to interfere with Bax-NPM complex formation
  Renal function (serum BUN): significantly lower BUN levels
Dose above 2 mg/animal (7 μM) or second dose within 24 hr, ischemic PTEC or mice
  Additional protection from higher or repeated dose: did not provide additional protection
Dose administered at 0, 1, 2 or 3 h post-ischemia, listed as Blocking peptide
  Protection against lethal renal ischemia (animal survival): significant protection
Dose administered at 0, 1, 2 or 3 h post-ischemia, listed as blocking peptide
  Protection against lethal renal ischemia (animal survival): for 7-d post-pedicle clamp release; no deaths were observed after 3 d. Significant protection
mice, administered before the insult
  Reduction of AKI severity: 40-50%
mouse, in vivo
  Improvement of kidney function (reduced both BUN and creatinine): 50%
peptide-treated animals
  Recovery of renal function: complete
  Time recovery of renal function was sustained: at least 4 weeks
Same dose administered 4, 5, or 6 h after ischemia, listed as Blocking peptide
  Protection against lethal renal ischemia (animal survival): no protection was observed
Same dose administered 4, 5, or 6 h after ischemia, listed as blocking peptide
  Protection against lethal renal ischemia (animal survival): 3 h post-AKI (P, 0.05); the blocking peptide was not protective if administered at 4, 5, or 6 h
28 min ischemia, listed as Blocking peptide
  Animals surviving severe ischemic AKI: 88%
28 min ischemia, listed as NPM inhibitor peptide
  Animals surviving severe ischemic AKI: 75%-88%
Single dose 0 h post-AKI
  Animal deaths on day 1 post-AKI: 1
  Survival: 88%
  Total deaths: 1
Single dose 1 h post-AKI
  Animal deaths on day 1 post-AKI: 1
  Animal deaths on day 2 post-AKI: 1
  Survival: 75%
  Total deaths: 2
Single dose 2 h post-AKI
  Animal deaths on day 2 post-AKI: 1
  Survival: 88%
  Total deaths: 1
Single dose 3 h post-AKI
  Animal deaths on day 2 post-AKI: 1
  Survival: 88%
  Total deaths: 1
Single dose 4 h post-AKI
  Animal deaths on day 1 post-AKI: 1
  Animal deaths on day 2 post-AKI: 4
  Animal deaths on day 3 post-AKI: 3
  Survival: 0%
  Total deaths: 8
Single dose 5 h post-AKI
  Animal deaths on day 1 post-AKI: 1
  Animal deaths on day 2 post-AKI: 6
  Survival: 13%
  Total deaths: 7
Single dose 6 h post-AKI
  Animal deaths on day 1 post-AKI: 1
  Animal deaths on day 2 post-AKI: 4
  Animal deaths on day 3 post-AKI: 2
  Survival: 13%
  Total deaths: 7
Single dose within 3 hours postischemia, 28 min ischemia, versus control
  Animal survival: dramatically improved animal survival

From patent US12018058B2, “Compositions and methods for diagnosing and/or treating kidney injury” (Boston Medical Center Corporation, priority 2018, dated 2024)
